The record followed here is patent US20250002471A1 (Gilead Sciences, Inc., priority 2020, published 2025).

The target in one experiment is T1, TLR7 (Homo sapiens, UniProt Q9NYK1).
T1 construct: lymphocytes, monocytes and dendritic cells that express TLR7, TLR8 and TLR9; endogenous in cells; host or cells: human PBMCs from healthy donors
T1 sequence (Q9NYK1 27-1049): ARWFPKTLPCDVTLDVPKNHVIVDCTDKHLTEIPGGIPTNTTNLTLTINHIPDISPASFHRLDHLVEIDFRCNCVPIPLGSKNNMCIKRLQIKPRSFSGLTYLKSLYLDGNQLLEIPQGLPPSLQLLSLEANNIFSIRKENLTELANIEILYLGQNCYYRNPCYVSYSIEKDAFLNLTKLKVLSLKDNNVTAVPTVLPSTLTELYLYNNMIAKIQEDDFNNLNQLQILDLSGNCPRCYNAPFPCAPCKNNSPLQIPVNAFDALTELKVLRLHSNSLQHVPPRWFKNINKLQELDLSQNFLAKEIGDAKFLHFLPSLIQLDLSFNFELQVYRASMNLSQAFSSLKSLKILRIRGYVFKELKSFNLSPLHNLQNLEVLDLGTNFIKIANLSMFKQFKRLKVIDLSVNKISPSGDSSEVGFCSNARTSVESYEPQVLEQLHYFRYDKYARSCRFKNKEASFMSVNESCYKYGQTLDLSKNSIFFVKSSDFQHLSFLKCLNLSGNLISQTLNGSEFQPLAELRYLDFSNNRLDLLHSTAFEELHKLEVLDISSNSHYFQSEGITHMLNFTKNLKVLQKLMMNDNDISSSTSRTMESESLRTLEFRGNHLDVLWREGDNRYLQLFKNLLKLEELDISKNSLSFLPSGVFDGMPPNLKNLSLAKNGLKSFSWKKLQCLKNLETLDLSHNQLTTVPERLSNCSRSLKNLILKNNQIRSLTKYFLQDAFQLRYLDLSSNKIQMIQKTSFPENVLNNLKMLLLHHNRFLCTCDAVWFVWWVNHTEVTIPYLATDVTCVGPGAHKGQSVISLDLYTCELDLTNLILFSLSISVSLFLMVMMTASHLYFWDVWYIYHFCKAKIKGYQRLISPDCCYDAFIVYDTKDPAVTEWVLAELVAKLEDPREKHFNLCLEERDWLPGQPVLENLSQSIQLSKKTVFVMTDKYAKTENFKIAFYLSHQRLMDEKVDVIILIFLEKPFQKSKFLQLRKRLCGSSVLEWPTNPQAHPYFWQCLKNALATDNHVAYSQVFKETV
Kind of experiment: Human PBMC cell-based assay, TLR7 agonist GS-986 stimulation, cytokine (IL-6 and IFNα) readout. The settings on record: human PBMCs, GS-986 400 nM, 6 hours; Table 26; read-out: TLR-7 EC50. An excerpt:
(§1) Human peripheral blood mononuclear cells (PBMCs) consist of lymphocytes, monocytes and dendritic cells that express TLR7, TLR8 and TLR9. These cells respond to TLR7, TLR8 and TLR9 ligand stimulation and produce cytokines and chemokines in vitro and in vivo. Human PBMCs are therefore suitable to be used in a cell-based assay to assess the in vitro potency of a TLR 7, 8, and/or 9 antagonist. The result is expected to be more translatable to the pharmacodynamics response in vivo than cell line-based assays.
(§2) Cryopreserved human PBMCs from healthy donors were thawed and resuspended in RPMI-1640 media with L-glutamine (Corning) supplemented with 10% Fetal Bovine Serum (Hyclone) and 1X Penicillin-Streptomycin (Corning). After counting, the cell density was adjusted to 2 million cells/ml and incubated for 1 hour at 37° C., 5% CO2 for recovery. Following the recovery, the cells were plated by adding 50p per well (100,000 cells) to 384-well cell culture plates (Greiner) containing 250nl of test antagonists in 100% DMSO per well, in a 10 points dose response in quadruplicates. PBMCs were incubated in the presence of test antagonists for one hour at 37° C., 5% CO2 before being stimulated with a TLR7 or TLR9 agonist. GS-986 (Gilead Sciences) was used as the TLR7 agonist at a final concentration of 400 nM. ODN-2216 (InvivoGen) was used as the TLR9 agonist at a final concentration of 3μM. PBMCs were incubated in the presence of the test antagonist and the TLR7 (or TLR9) agonist for an additional 6 hours at 37° C., 5% CO2. At the end of the incubation, the cell culture plates were centrifuged at 500 g for 5 min, and the cell culture supernatant was collected. The level of cytokines (IL-6 and IFNα) in the supernatant was measured by electrochemiluminescence immunoassays (Mesoscale Discovery) following manufacturer's recommended protocols. The level of cytokine measured was plotted against the test antagonist concentration and fitted to a sigmoidal function to determine the EC50, which are shown below in Table 26.

Another experiment concerns the target T2, TLR9 (Homo sapiens, UniProt Q9NR96).
T2 construct: lymphocytes, monocytes and dendritic cells that express TLR7, TLR8 and TLR9; endogenous in cells; host or cells: human PBMCs from healthy donors
T2 sequence (Q9NR96 26-1032): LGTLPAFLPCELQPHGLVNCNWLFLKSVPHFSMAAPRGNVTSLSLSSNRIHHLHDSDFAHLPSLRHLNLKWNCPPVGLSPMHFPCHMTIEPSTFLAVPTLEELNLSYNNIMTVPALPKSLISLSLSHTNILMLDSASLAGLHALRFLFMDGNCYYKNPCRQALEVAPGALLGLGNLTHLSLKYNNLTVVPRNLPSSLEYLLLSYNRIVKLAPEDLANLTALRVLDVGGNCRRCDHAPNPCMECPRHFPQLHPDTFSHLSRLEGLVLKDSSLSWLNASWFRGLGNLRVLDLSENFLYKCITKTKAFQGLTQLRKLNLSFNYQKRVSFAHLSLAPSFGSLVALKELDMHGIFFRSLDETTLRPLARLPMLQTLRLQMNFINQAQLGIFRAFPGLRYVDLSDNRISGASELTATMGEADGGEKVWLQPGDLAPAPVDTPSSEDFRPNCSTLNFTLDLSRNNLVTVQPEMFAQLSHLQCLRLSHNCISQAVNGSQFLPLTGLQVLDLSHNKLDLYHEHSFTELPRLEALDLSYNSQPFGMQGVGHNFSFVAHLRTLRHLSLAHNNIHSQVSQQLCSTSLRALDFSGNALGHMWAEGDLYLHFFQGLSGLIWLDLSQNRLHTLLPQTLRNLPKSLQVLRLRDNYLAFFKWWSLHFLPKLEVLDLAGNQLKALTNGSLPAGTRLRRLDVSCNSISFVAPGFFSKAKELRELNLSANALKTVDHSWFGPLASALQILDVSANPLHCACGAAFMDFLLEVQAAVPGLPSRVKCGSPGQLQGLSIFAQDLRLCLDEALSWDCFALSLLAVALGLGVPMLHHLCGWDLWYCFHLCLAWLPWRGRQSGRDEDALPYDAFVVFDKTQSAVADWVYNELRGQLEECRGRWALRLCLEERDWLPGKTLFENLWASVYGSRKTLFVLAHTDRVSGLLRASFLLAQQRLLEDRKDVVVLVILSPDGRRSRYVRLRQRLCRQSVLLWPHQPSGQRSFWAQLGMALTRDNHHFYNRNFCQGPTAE
Put plainly: Human PBMC cell-based assay, TLR9 agonist ODN-2216 stimulation, cytokine (IL-6 and IFNα) readout. The settings on record: human PBMCs, ODN-2216 3 μM, 6 hours; Table 26; read-out: TLR-9 EC50.
From the text: as §1, §2

Some results are limits rather than exact numbers.

As to `Cc1cc(-c2[nH]c3cc(-c4ccc(N5CCN(C(=O)[C@@H]6CNCCO6)CC5)nc4)ccc3c2C)cc(C)n1` [Example 112], the values for the EC50 at TLR7 and on TLR9 were 58.3 nM and 114 nM, respectively.
As to `Cc1cc(-c2[nH]c3cc(-c4ccc(N5CCN(CC(C)O)CC5)nc4)ccc3c2C)cc(C)n1` (stereo not shown) [Example 118], the EC50 (as a rule, the concentration that produces a half-maximal response) at TLR7 was 5.8 nM; at TLR9 it was 58.7 nM.
The matching figures for `Cc1cc(-c2[nH]c3cc(-c4cnc5c(c4)CCNC5)ccc3c2C)cc(C)n1` [Example 181, 3-[2-(2,6-dimethyl-4-pyridyl)-3-methyl-1H-indol-6-yl]-5,6,7,8-tetrahydro-1,7-naphthyridine]: 48.3 nM and 35.2 nM.
The matching figures for `COc1cc(-c2[nH]c3cc(-c4ccc(N5CCNCC5)nc4)ccc3c2C)cc(C)n1` [Example 79]: 10.9 nM and 994 nM.
The matching figures for `Cc1cc(-c2[nH]c3cc(-c4ccc(N5CCN(C(=O)[C@@H]6COCCN6)CC5)nc4)ccc3c2C)cc(C)n1` [Example 110]: 32.2 nM and 63.6 nM.
For `Cc1cc(-c2[nH]c3cc(-c4ccc5ncn(C6CCNCC6)c5c4)ccc3c2C)cc(C)n1` [Example 166], the 50% effective concentration (EC50) on TLR7 was found to be 144 nM; on TLR9, 522 nM.
The matching figures for `COc1cc(-c2ccc3c(C)c(-c4cc(C)nc(C)c4)[nH]c3c2)ccn1` [Example 56, 2-(2,6-dimethylpyridin-4-yl)-6-(2-methoxypyridin-4-yl)-3-methyl-1H-indole]: 374 nM and 3040 nM.
On the same counts, the results for `Cc1c(-c2ccc(=O)n(C)c2)[nH]c2cc(-c3ccc(N4CCNCC4)nc3)ccc12` [Example 95, 1-methyl-5-(3-methyl-6-(6-(piperazin-1-yl)pyridin-3-yl)-1H-indol-2-yl)pyridin-2(1H)-one] are 102 nM and 288 nM.
On the same counts, the results for `CNCC(=O)N1CCN(c2ccc(-c3ccc4c(C)c(-c5cc(C)nc(C)c5)[nH]c4c3)cn2)CC1` [Example 136] are 37.8 nM and 45.6 nM.
On to `Cc1cc(-c2[nH]c3cc(-c4cnn(C5CC6CCC(C5)N6)c4)ccc3c2C)cc(C)n1` (stereo not shown) [Example 184], for which the EC50 at TLR7 came to 16.9 nM; at TLR9, 268 nM.
On the same counts, the results for `Cc1cc(-c2[nH]c3cc(-c4ccc(N5CC[C@H]6CNC[C@H]65)nc4)ccc3c2C)cc(C)n1` [Example 33] are 51 nM and 79.9 nM.
On the same counts, the results for `Cc1cc(-c2[nH]c3cc(-c4ccc(N5CCNCC5)nc4)ccc3c2C)ccn1` [Example 73, 3-methyl-2-(2-methylpyridin-4-yl)-6-(6-(piperazin-1-yl)pyridin-3-yl)-1H-indole] are 33.3 nM and 102 nM.
On the same counts, the results for `Cc1cc(-c2[nH]c3cc(-c4cnc(N5CCNCC5)nc4)ccc3c2C2CC2)cc(C)n1` [Example 67] are 3 nM and 199 nM.
In the case of `Cc1cc(-c2[nH]c3cc(-c4ccc5[nH]c(C6CCNCC6)nc5c4)ccc3c2C)cc(C)n1` [Example 147, 5-[2-(2,6-dimethyl-4-pyridyl)-3-methyl-1H-indol-6-yl]-2-(4-piperidyl)-1H-benzimidazole], the EC50 on TLR7 is greater than 1000 nM; at TLR9 it was 1350 nM.
The matching figures for `Cc1cc(-c2[nH]c3cc(-c4nc(N5CCNCC5)cs4)ccc3c2C)cc(C)n1` [Example 185, 2-(2-(2,6-dimethylpyridin-4-yl)-3-methyl-1H-indol-6-yl)-4-(piperazin-1-yl)thiazole]: 37.4 nM and 54.3 nM.
On the same counts, the results for `Cc1cc(-c2[nH]c3cc(-c4nc(C5CCNCC5)no4)ccc3c2C)cc(C)n1` [Example 189] are 108 nM and 217 nM.
Consider `CCc1c(-c2cc(C)c3ncnn3c2)[nH]c2cc(-c3ccc(N4CCN(CC(N)=O)CC4)nc3)ccc12` [Example 177, 2-(4-(5-(3-ethyl-2-(8-methyl-[1,2,4]triazolo[1,5-a]pyridin-6-yl)-1H-indol-6-yl)pyridin-2-yl)piperazin-1-yl)acetamide], for which the EC50 on TLR7 is 1.66 nM.
Same read-out and setting: under `Cc1c(-c2cc(C)c3ncnn3c2)[nH]c2cc(-c3nc4ccccc4n3C)ccc12` [Example 194] stands 631 nM.
For `Cc1cc(-c2[nH]c3cc(-c4ccc5c(c4)CCCN5)ccc3c2C)cc(C)n1` [Example 43], on TLR9, the EC50 turned out to be 1340 nM.
Consider `Cc1c(-c2cc(C)c3ncnn3c2)[nH]c2cc(-c3ccc4nc([C@H]5N[C@@H]6CC[C@H]5C6)[nH]c4c3)ccc12` [Example 171], for which the EC50 at TLR7 is 0.11 nM.
As to `Cc1c(-c2cc(C)c3ncnn3c2)[nH]c2cc(-c3nc4ccccc4[nH]3)ccc12` [Example 193, 6-[6-(1H-benzimidazol-2-yl)-3-methyl-1H-indol-2-yl]-8-methyl-[1,2,4]triazolo[1,5-a]pyridine], the concentration giving a half-maximal response (EC50) at TLR7 turned out to be 483 nM.
The same measure, in the same setting: under `Cc1c(-c2cc(C)c3ncnn3c2)[nH]c2cc(-c3cnc4c(c3)CNCC4)ccc12` [Example 170] stands 1.37 nM; under `Cc1c(-c2cc(C)c3ncnn3c2)[nH]c2cc(-c3ccc4c(c3)ncn4C3CC4CC3CN4)ccc12` (stereo not shown) [Example 176], 1.01 nM; under `Cc1cc(-c2[nH]c3cc(-c4ccc5nc([C@@H]6N[C@H]7CC[C@@H]6C7)[nH]c5c4)ccc3c2C)cc(C)n1` [Example 195, 2-[(1S,3R,4R)-2-azabicyclo[2.2.1]heptan-3-yl]-6-[2-(2,6-dimethyl-4-pyridyl)-3-methyl-1H-indol-6-yl]-1H-benzimidazole], 4.48 nM.
